# Reference: PMC9102668, “Highly Cytotoxic Osmium(II) Compounds and Their Ruthenium(II) Analogues Targeting Ovarian Carcinoma Cell Lines and Evading Cisplatin Resistance Mechanisms” (International Journal of Molecular Sciences, 2022)
# Assays:
# SKOV3 = experiment: MTT assay (CellTiter96), cytotoxic activity; format: cell-based; conditions: 48 h incubation
# Procedure: (§1) The biological behaviour of all substances was characterized by their cytotoxic activity against a panel of cell lines enabling an understanding of the structure-activity relationship. Cytotoxic activity was determined on ovarian carcinoma cell lines SKOV3 and A2780 as well as their Cisplatin resistant analogues (SKOV3cis and A2780cis) and the lung carcinoma cell line A549. Due to a low solubility in water, dmso is used as a solvent for the preparation of a dilution series in cell culture experiments. The toxic influence of dmso was determined earlier and experiments were carried out with 0.5% dmso in cell culture media and this concentration was used as reference sample in each MTT assay (details: Section 3). […] Resistance factors (RF) were determined for all substances (for IC50 values and RF of β-Hydroxydithiocinnamic acid esters L1–L18, see Tables S2 and S3, Supplementary part). All investigated ruthenium(II) compounds show lower RF values than Cisplatin on ovarian carcinoma cell lines, ranging from 0.2 to 1.5 (Table 3). Whereas the IC50 values on the non-resistant cell lines are in most cases higher than the IC50 of the reference substance, no increase of IC50 values is observed for the resistant cell lines. Contrary, eight ruthenium complexes show lower IC50 values on SKOV3cis than Cisplatin and four compounds on A2780cis. Thus, it can be concluded that these compounds are able to bypass the Cisplatin resistance mechanism in these cell lines pointing to a different mechanism of action.
# (§2) Ovarian cancer cell lines were cultured under standard conditions (5% CO2, 37 °C, 90% humidity) in RPMI medium supplemented with 10% FCS, 100 U/mL penicillin and 100 µg/mL streptomycin (Life Technologies, Dreieich, Germany). Cisplatin (Sigma, Taufkirchen, Germany) was freshly dissolved at 1 mg/mL in 0.9% NaCl solution and diluted appropriately. New ruthenium(II) complexes and ligands were dissolved in dmso. Platinum-resistant A2780 and SKOV3 cells were established by repeated rounds of 3-day incubations with increasing amounts of Cisplatin starting with 0.1 µM. The concentration was doubled after 3 incubations, interrupted by recovery phases with normal medium. […] Determinations of IC50 values were carried out using the CellTiter96 non-radioactive proliferation assay (MTT assay, Promega, Mannheim, Germany). After seeding 5000 cells per well in a 96-well plate, cells were allowed to attach for 24 h and were incubated for 48 h with different concentrations of the substances ranging from 0 to 500 µM for Ruthenium and 0 to 1000 µM for ligand tests (0, 1, 10, 50, 100, 500, 1000 µm), for Cisplatin from 0 to 100 µM (0.1, 1, 5, 10, 50, 100 µM). Each measurement was done in triplicate and repeated 3 times. The proportion of viable cells was quantified by the MTT assay and after background subtraction relative values compared to the mean of medium controls were calculated. Non-linear regression analyses applying the Hill slope were run in GraphPad 5.0 software.
# A549 = experiment: MTT assay (CellTiter96), cytotoxic activity; format: cell-based; conditions: lung carcinoma cell line, 48 h incubation
# Procedure: as §1, §2
# SKOV3cis = experiment: MTT assay (CellTiter96), cytotoxic activity; format: cell-based; conditions: for IC50: Cisplatin resistant SKOV3, MTT assay, 48 h incubation; for RF SKOV3 (resistance factor): SKOV3cis vs SKOV3
# Procedure: as §1, §2
# A2780 = experiment: MTT assay (CellTiter96), cytotoxic activity; format: cell-based; conditions: 48 h incubation
# Procedure: as §1, §2
# A2780cis = experiment: MTT assay (CellTiter96), cytotoxic activity; format: cell-based; conditions: for RF A2780 (resistance factor): A2780cis vs A2780; for IC50: Cisplatin resistant A2780, MTT assay, 48 h incubation
# Procedure: as §1, §2
# MCF10A = experiment: IC50 on non-cancerous cell cultures; format: cell-based; conditions: non-cancerous breast epithelial cell line
# Keratinocytes = experiment: IC50 on non-cancerous cell cultures; format: cell-based; conditions: normal primary short-term cell culture
# Fibroblasts = experiment: IC50 on non-cancerous cell cultures; format: cell-based; conditions: normal primary short-term cell culture
# [1] = Stability determination via 1H NMR spectroscopy; format: physicochemical
# Procedure: To investigate the behaviour of the ruthenium(II) complexes Ru1, Ru3, and Ru8 in solution, we analysed kinetic measurements via ^1H NMR spectroscopy (every 1 h, one spectra). NMR signals and behaviour of the ruthenium and osmium compounds is similar, but osmium(II) compounds show a slower ligand exchange mechanism and a higher stability in general. […] The same measurements were done also with dmso at room temperature. Similar changes in the spectra occur at room temperature and new species are detectable (exemplified for Ru1 in the Supplementary Figure S3). However, slower speciation processes in comparison to 37 °C measurements occur, which is exemplarily represented by the disappearance of the double-doublets of the cymene ligand after 29 h (rt, Supplementary Figure S3) vs. 5 h (37 °C, Supplementary Figure S2). As reported earlier, dmso molecules are able to bind to the ruthenium(II) center by losing the cymene ligand and changing the structure to an octahedral metal(II) coordination sphere. Thus, an explanation for the new species can be the binding of dmso molecules to the ruthenium(II) center after loss of the cymene ligand representing the new species in the ^1H NMR spectra. To support this hypothesis, the ruthenium(II) complexes were measured under same conditions (rt, 72 h) in CD2Cl2, and it was shown that the compounds are stable under these conditions in the other solvent (see Supplementary Figure S4).
# NMR spectra were measured via NMR spectroscopy on Bruker Avance 400 MHz. Substances were solved in dmso-d6 or CD2Cl2 and measured directly at 37 °C or room temperature for 72 h. NS = 128 scans, t = 709 s/2891 s break, 72 measurements.
# [2] = system: A2780 and SKOV3 cells and the resistant subcultures; experiment: Cell cycle distribution, PI staining and FACS; format: cell-based; conditions: 48 h treatment, 24 h recovery
# Procedure: The reduced viability under treatment, as measured by the MTT assay, can be a result of cell cycle arrest and/or increased cell death. To further evaluate the anticancer properties of the ruthenium(II) complexes we measured cell cycle distribution and cell death rates after treatment with Ru3 or Ru14. After seeding and attaching, the cells were treated for 48 h with different concentrations of substances. For cell cycle distribution measurements, a recovery phase of 24 h was added after treatment, and cells were fixed and stained with PI for the DNA content. Arresting of cells in specific cell cycle phases gives them time to resolve the DNA damage (G1 arrest) or is an initial step to apoptosis if DNA damage is too severe (G2/M arrest).
# (§3) To examine cell cycle distribution and cell death rates, 30,000 cells were seeded in 12 well plates. After attaching for 24 h cells were treated with Cisplatin, Ru3 and Ru14 for 48 h at various concentrations for cell cycle and cell death analyses. For cell death analysis, immediately after treatment cells were stained with Propidium Iodid (PI) (1 µg/mL) on ice and the number of dead cells was measured using BD Canto II. For cell cycle distribution, cells recovered for 24 h after treatment. Afterwards, cells were fixed in ice-cold, 50% EtOH for 24 h at −20 °C. For DNA staining, fixed cells were incubated in PBS with 0.05% Triton-X, 0.1 µg/mL RNaseA and 50 µg/mL PI for 1 h at 4 °C in dark. DNA content was measured using BD Canto II.
# SKOV3 cells = experiment: Cell death rate, PI staining of live cells (FACS); format: cell-based; conditions: parental SKOV3, 15 µM, 48 h
# Procedure: (§4) For cell death rate analysis, live cells were stained with PI immediately after 48 h treatment. […] Furthermore, resistant cells show much lower Cisplatin-induced cell death rates (Figure 7). […] In A2780 cells, both compounds trigger similar cell death rates in parental and Cisplatin-resistant cells. Cisplatin-resistant SKOV3 are much more sensitive to both ruthenium(II) complexes than the parental counterpart, with a median of 3.3-fold higher sensitivity.
# as §3
# A2780 cells = experiment: Cell death rate, PI staining of live cells (FACS); format: cell-based; conditions: 48 h
# Procedure: as §4, §3
# [3] = system: Cisplatin resistant cell lines; experiment: Mean IC50 (MTT assay) on Cisplatin resistant cell lines; format: cell-based
# Procedure: Thus, it can be concluded that the biological activity is mediated by a longer chain (butoxy) at the meta-position, whereas the ortho- and para-positions are more suitable with a shorter chain (ethoxy). To have a further look at the influence of the different ligand systems and substitution patterns, all β-Hydroxydithiocinnamic acid alkyl esters were tested under same conditions as their derived ruthenium(II) complexes (Figure 5B, Supplementary Table S3). […] All ligands are less cytotoxic than Cisplatin itself and therefore the metal(II) center is necessary for the high cytotoxic activity, what is in clear contrast to the literature for O,S-chelating ruthenium(II) or osmium(II) compounds with thiomaltol ligand [48, 71] but confirmed for Ru(II)/Os(II) compounds with N,N-bidentate glycosyl heterocyclic ligands. This is exemplarily shown by the comparison of mean IC50 values for Cisplatin, L14, and Ru14 (Supplementary Figure S8).
# as §2
# histone γH2AX-foci = experiment: γH2AX foci analysis (DNA damage); format: cell-based; conditions: IC50 concentration, 24h incubation
# Excerpt: ROS production may also lead to endoplasmatic reticulum stress-induced apoptosis. In general, many ruthenium(II) complexes with different ligands induce intracellular ROS [94, 95, 96, 97, 98, 99]. Moreover, the cytotoxic activity of Os(II) compounds can be inhibited by vitamin E co-treatment pointing to the contribution of ROS [88]. In addition to mitochondrial dysfunction, Ru(II) complexes may affect glycolysis or topoisomerase I/II, thus inducing necroptosis. Ru(II) compounds with modified pyrithione ligands were recently described to overcome platinum resistance in ovarian cancer cells by inducing cytostatic G1 arrest, TrxR inhibition, and cell membrane damage. […] Future studies may identify the specific target proteins enabling molecular docking studies and specific refinement of the organo-metal compound structure. Altogether, presented compounds may use some of these alternative modes of action as well, as we see efficient cell death but no cell cycle arrest induction by Ru3/Ru14. Furthermore, the ruthenium(II) core atom might be responsible for this effect because of the lack of anticancer behaviour of the ligand L14 (Supplementary Figure S8). To further confirm that Ru compounds use another mechanism of action, DNA damage analyses were conducted for Ru3 and Ru14 (Figure 8). […]
Molecule,IC50 (SKOV3),IC50 (A549),IC50 (SKOV3cis),RF SKOV3 (resistance factor) (SKOV3cis),IC50 (A2780),RF A2780 (resistance factor) (A2780cis),IC50 (A2780cis),IC50 (MCF10A),IC50 (Keratinocytes),IC50 (Fibroblasts),also measured
"[(η^6-p-cymene)Os(1-(3-hydroxyphenyl)-3-(ethylthio)-3-thioxo-prop-1-en-1-olate-O,S)Cl] [Os3]",1.1 µM,0.7 µM,2.3 µM,2.1,0.4 µM,1,0.4 µM,21.3 µM,84.5 µM,> 100 µM,stability determination using NMR spectroscopy ([1]; osmium(II) compounds): no structural changes
cis-[Pt(NH3)2Cl2] [Cisplatin],3.8 µM,7.6 µM,13.5 µM,3.6,1.3 µM,4.7,6.1 µM,3.3 µM,5.7 µM,4.1 µM,"effect on cell cycle distribution ([2]; 5 µM, parental A2780 and SKOV3 cells): cell cycle arrest in G2/M phase; cell death compared to untreated cells (SKOV3 cells): 6.3 fold; cell death compared to untreated cells (A2780 cells; parental A2780, 15 µM, PI staining): 29.9 fold"
"[(n^6-p-cymene)Ru(1-phenyl-3-(methylthio)-3-thioxo-prop-1-en-1-olate-O,S)Cl] [Ru1]",34.7 µM,28.8 µM,18.4 µM,0.5,12.8 µM,0.75,9.6 µM,,,,"disappearance of the double-doublets of the cymene ligand ([1]; dmso, rt): 29 h; disappearance of the double-doublets of the cymene ligand ([1]; dmso-d6, 37 °C): 5 h; loss of the methine proton signal ([1]; dmso-d6, 37 °C): 7 h"
"CSC(=S)C=C([O][Ru][Cl])c1cccc(O)c1.Cc1ccc(C(C)C)cc1 [Ru3, [(η^6-p-cymene)Ru(1-(3-hydroxyphenyl)-3-(methylthio)-3-thioxo-prop-1-en-1-olate-O,S)Cl]]",18.9 µM,8 µM,12.1 µM,0.6,8.7 µM,0.9,7.4 µM,,,,"effect on cell cycle distribution [2]: no or only a minor effect on cell cycle distribution; capacity to induce cell death in vitro (A2780 cells; A2780 and SKOV3 cells, 20 µM and 30 µM): high capacity to induce cell death; mean IC50 value on Cisplatin resistant cell lines compared with Cisplatin [3]: lower; γH2AX-foci induction (histone γH2AX-foci): less γH2AX-foci as Cisplatin"
